# Molecular target: T1, RBBP4 (Homo sapiens, UniProt Q09028)
# T1 construct: Expression of recombinant RBBP4 protein was done as described ([32]); His-tag (inferred from His-Trap purification); made in house
# Experiment: Competitive fluorescence polarization (displacement of FAM-labeled ZNF512B tracer)
# Type: binding
# Conditions: ratio of competitive ki, ZNF512B vs FOG-1
# Procedure: Expression of recombinant RBBP4 protein was done as described ([32]). RBBP4 was purified by FPLC using the Äkta Start (Cytiva) via a His-Trap column (71502768) and subsequently a HiTRAP Q column (29051325) by standard procedures outlined in the instructions of the manufacturer. To determine the dissociation constant (kD), serial dilutions of RBBP4 protein (10–0 μM, 25 μl) in 50 mM Tris/Cl pH 7.5, 150 mM NaCl and 0.02% Triton™ X-100 were added to 25 μl of the fluorescently tagged tracer peptide for a finale volume of 50 μl with 1 nM tracer. The 384-well plate (GBO 781 900) was measured (Tecan Spark 20M) after 60 min and the kD values were calculated by converting the mP values into their corresponding anisotropy (A) values following the equation:
# Hereby, A = anisotropy and P = polarization. These values were plotted versus the respective concentrations of the protein with a non-linear regression according to the following equation: […]
# Hereby, A is the experimental anisotropy, Af is the anisotropy for the free ligand, Ab is the anisotropy for the fully bound ligand, LT is the total added concentration of ligand, kD is the equilibrium dissociation constant and RT is the total receptor concentration. […] Inhibition constant (ki) values were calculated using the following equation described previously by Wang et al. and the standard deviation was calculated for each ki value ([35]).
# T1 sequence (Q09028 whole entry): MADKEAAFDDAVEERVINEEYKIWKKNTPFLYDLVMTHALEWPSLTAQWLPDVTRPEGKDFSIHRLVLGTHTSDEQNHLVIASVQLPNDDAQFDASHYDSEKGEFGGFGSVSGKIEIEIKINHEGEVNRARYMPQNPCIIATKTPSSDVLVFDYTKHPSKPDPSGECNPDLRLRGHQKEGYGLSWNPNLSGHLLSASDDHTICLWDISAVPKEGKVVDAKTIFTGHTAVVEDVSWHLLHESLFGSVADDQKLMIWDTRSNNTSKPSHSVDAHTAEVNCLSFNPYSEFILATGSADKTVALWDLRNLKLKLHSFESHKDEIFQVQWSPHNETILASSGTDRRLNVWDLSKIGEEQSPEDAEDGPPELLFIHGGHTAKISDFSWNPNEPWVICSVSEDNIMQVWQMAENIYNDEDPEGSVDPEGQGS
structure (smiles),measurement,value
CC(=O)N[C@@H](CCCCN)C(=O)N[C@@H](Cc1c[nH]cn1)C(=O)N[C@@H](CCCNC(=N)N)C(=O)N[C@@H](CCCNC(=N)N)C(=O)N[C@@H](CCCCN)C(=O)N[C@@H](CCC(N)=O)C(=O)N[C@@H](CCCCN)C(=O)N[C@H](C(=O)N1CCC[C@H]1C(=O)N[C@@H](CCCCN)C(=O)N[C@@H](CCCCN)C(=O)N[C@@H](Cc1ccccc1)C(N)=O)[C@@H](C)O [ZNF512B-WT],higher affinity for RBBP4 than FOG-1,> 60 -fold
